Data published in patent US11286268B1, “EIF4E-inhibiting compounds and methods” (EFFECTOR THERAPEUTICS, INC., priority 2019, dated 2022).
Where two headings read alike, the source gives them in different places.

Biological target: recombinant eIF4E (Homo sapiens (Human), UniProt P06730)
Experiment: Fluorescence polarization competition assay for eIF4E binding potency
Protocol: Compounds were screened for eIF4E binding potency using a fluorescence polarization competition assay. All binding reactions were performed in fluorescence polarization buffer (FPB) containing 20 mM Tris pH 7.5, 100 mM NaCl, 1 mM DTT, and 0.02% Tween-20. Final binding reactions contained 75 nM recombinant eIF4E (Beryllium, custom order), 20 nM EDA-m^7GDP-ATTO-550 (Jena Bioscience, NU-827-550) and varying concentrations of the inhibitory compound of interest. Final DMSO concentration in each reaction was 1%.
eIF4E protein was pre-incubated with EDA-m^7GDP-ATTO-550 in FPB at 2× concentrations for 5 minutes prior to the addition of compounds. Compounds (100×) were prepared using 3-fold serial dilutions in 100% DMSO, and subsequently diluted 1:50 in FPB to produce 2× stocks. 50 μl of 2× eIF4E/EDA-m^7GDP-ATTO-550 were transferred to the wells of a 96-well half-area black flat bottom polystyrene plate. 50 μl of 2× test compound were added, and binding reactions were allowed to equilibrate for 30 minutes at room temperature while protected from light. The fluorescent polarization signal was detected using a Victor 2 multi-label counter (Perkin Elmer) and the concentration necessary to achieve inhibition of eIF4E/EDA-m^7GDP-ATTO-550 binding by 50% (IC50) was calculated using data from an 8-point compound dilution series.
In Table 4A, IC50 values of less than 0.05 μM are labelled as “+++”, from 1 to 0.05 μM are labelled as “++”, and greater than 1 μM are labelled as “+”. ND=not determined.

[1] = inhibition of eIF4E/EDA-m7GDP-ATTO-550 binding, calculated IC50 values, Table 4B, read-out: IC50
[2] = fluorescence polarization competition, 75 nM recombinant eIF4E, 20 nM EDA-m7GDP-ATTO-550, IC50 class, read-out: elF4E FP
[3] = inhibition of eIF4E/EDA-m7GDP-ATTO-550 binding by 50%, Table 4B calculated values, read-out: IC50

Chain of recombinant eIF4E (P06730 whole entry): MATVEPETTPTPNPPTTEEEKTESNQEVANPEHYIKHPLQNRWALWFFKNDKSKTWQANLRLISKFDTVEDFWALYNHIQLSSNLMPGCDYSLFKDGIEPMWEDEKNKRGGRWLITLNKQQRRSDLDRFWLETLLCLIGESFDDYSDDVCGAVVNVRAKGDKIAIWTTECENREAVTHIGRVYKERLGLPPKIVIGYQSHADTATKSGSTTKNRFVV

SMILES	IC50 [1]	IC50 [2]	IC50 [3]
Cc1nc2cnc(N(C)C3C[C@H]4C[C@@H]3CN4CC(C)(F)F)c(C#N)c2c(=O)n1CC#Cc1ccc(Cl)cc1-c1ccnc2c(C(=O)O)csc12 (stereo partly drawn) [compound 1689]	22.2 nM		
Cc1nc2ccc(C(F)(F)F)c(C#N)c2c(=O)n1CCOc1ccc(Cl)cc1-c1ccnc2c(C(=O)O)csc12 [compound 1935]	80.1 nM		
Cc1cnc2c(C(=O)O)csc2c1-c1cc(Cl)ccc1OCCn1c(C)nc2cc(C(F)(F)F)cc(C#N)c2c1=O [compound 495]		50 to 1000 nM	237 nM
Cc1nc2cc(OC(F)F)c(C(F)(F)F)c(C#N)c2c(=O)n1CCOc1ccc(Cl)cc1-c1ccnc2c(C(=O)O)csc12 [compound 540]		< 50 nM	14 nM
Cc1cc(-c2cc(Cl)ccc2OCCn2c(C)nc3cnc(-n4ccc5ccccc54)c(C#N)c3c2=O)c2scc(C(=O)O)c2n1 [compound 983]		< 50 nM	18.9 nM
Cc1nc2cc(OC(F)F)c(OC(F)F)c(C#N)c2c(=O)n1CCOc1ccc(Cl)cc1-c1ccnc2c(C(=O)O)csc12 [compound 541]		< 50 nM	49.1 nM
Cc1cc(-c2cc(Cl)ccc2OCCn2c(C)nc3cc(C(F)(F)F)c(C4=CCOCC4)c(C#N)c3c2=O)c2scc(C(=O)O)c2n1 [compound 429]		< 50 nM	
Cc1nc2cnc(N(C)C3CCN([C@H]4C[C@@H](OC(F)(F)F)C4)CC3)c(C#N)c2c(=O)n1CC#Cc1ccc(Cl)cc1-c1ccnc2c(C(=O)NS(C)(=O)=O)csc12 [compound 1772]	6.07 nM		
Cc1nc2cc(C(F)(F)F)c(N3CCN(C)CC3)c(C#N)c2c(=O)n1CCOc1ccc(Cl)cc1-c1ccccc1 [compound 833]		50 to 1000 nM	111 nM
COc1c(CCOc2ccc(Cl)cc2-c2ccnc3c(C(=O)O)csc23)c(C)cc2cc(C(F)(F)F)cc(C#N)c12 [compound 1977]	> 1000 nM		
Cc1nc2c(Cl)cc(Cl)c(C#N)c2c(=O)n1CCOc1ccc(Cl)cc1-c1ccnc2c(C(=O)O)csc12 [compound 209]		< 50 nM	47 nM
Cc1nc2cc(C(F)(F)F)cc(S(C)(=O)=O)c2c(=O)n1CCOc1ccc(Cl)cc1-c1ccnc2c(C(=O)O)csc12 [compound 223]		50 to 1000 nM	950 nM
CCc1ncc(-c2c(C(F)(F)F)cc3nc(C)n(CCOc4ccc(Cl)cc4-c4cc(C)nc5c(C(=O)O)csc45)c(=O)c3c2C#N)cc1F [compound 1911]	4.03 nM		
Cc1c(CCOc2ccc(Cl)cc2-c2ccnc3c(C(=O)O)csc23)c(=O)c2c(C#N)cc(C(F)(F)F)cc2n1C [compound 180]		< 50 nM	47.7 nM
Cc1cc(-c2cc(Cl)ccc2OCCn2c(C)nc3cc4c(c(C#N)c3c2=O)CCN(C)C4)c2scc(C(=O)O)c2n1 [compound 335]		50 to 1000 nM	
Cc1nc2cnc(N3CCN(C(C)CF)CC3)c(C#N)c2c(=O)n1CCOc1ccc(Cl)cc1-c1ccnc2c(C(=O)O)csc12 (stereo not drawn) [compound 1424]	29.2 nM		
Cc1c(CCOc2ccc(Cl)cc2-c2ccnc3c(C(=O)O)csc23)c(=O)c2c(C#N)c(Cl)c(C(F)(F)F)cc2n1C [compound 361]		50 to 1000 nM	68.4 nM
Cc1nc2c(C3CCN(CC(F)(F)F)CC3)ncc(C#N)c2c(=O)n1CCOc1ccc(Cl)cc1-c1ccnc2c(C(=O)O)csc12 [compound 1115]		< 50 nM	6.77 nM
Cc1cc(-c2cc(Cl)ccc2OCCn2c(C)nc3cc(C(F)(F)F)c(CC4CNC4)c(C#N)c3c2=O)c2scc(C(=O)O)c2n1 [compound 424]		< 50 nM	4.08 nM
Cc1nc2cnc(N3CCN(CC(C(F)(F)F)C(F)(F)F)CC3)c(C#N)c2c(=O)n1CCOc1ccc(Cl)cc1-c1ccnc2c(C(=O)O)csc12 [compound 1359]	39.7 nM		
Cc1cc(-c2cc(Cl)ccc2OCCn2c(C)nc3cnc(C4CCC4)c(C#N)c3c2=O)c2scc(C(=O)O)c2n1 [compound 912]		< 50 nM	8.98 nM
Cc1cc(-c2cc(Cl)ccc2OCCn2c(C)nc3cnc(C4CC4)c(C#N)c3c2=O)c2scc(C(=O)O)c2n1 [compound 418]		< 50 nM	9.07 nM
Cc1nc2cnc(N3CCN(C4CC4)CC3)c(C#N)c2c(=O)n1CC#Cc1ccc(Cl)cc1-c1ccnc2c(C(=O)O)csc12 [compound 1162]		< 50 nM	21.6 nM
Cc1nc2cnc(N3CC4(C3)CN(C3C(C)(C)C3(C)C)C4)c(C#N)c2c(=O)n1CCOc1ccc(Cl)cc1-c1ccnc2c(C(=O)O)csc12 [compound 1476]	16.2 nM		

SMILES	IC50 [1]	IC50 [2]	IC50 [3]
Cc1nc2cnc(N(C)CC3CN(CC(F)F)C3)c(C#N)c2c(=O)n1CC#Cc1ccc(Cl)cc1-c1ccnc2c(C(=O)O)csc12 [compound 1542]	18.6 nM		
Cc1cc(-c2cc(Cl)ccc2OCCn2c(C)nc3cc(C(F)(F)F)c(-c4cccnc4C)c(C#N)c3c2=O)c2scc(C(=O)O)c2n1 [compound 735]		50 to 1000 nM	58 nM
Cc1nc2cc(C(F)(F)F)c(CN(C)C)c(C#N)c2c(=O)n1CCOc1ccc(Cl)cc1-c1ccnc2c(C(=O)O)csc12 [compound 261]		< 50 nM	42 nM
Cc1cc(-c2cc(Cl)ccc2OCCn2c(C)nc3cc(C(F)(F)F)c(-c4cnc(C(F)F)cn4)c(C#N)c3c2=O)c2scc(C(=O)O)c2n1 [compound 1025]		< 50 nM	30 nM
Cc1nc2cnc(N(C)C3CCN(CC(F)(F)C4CC4)CC3)c(C#N)c2c(=O)n1CCOc1ccc(Cl)cc1-c1ccnc2c(C(=O)O)csc12 [compound 1126]		< 50 nM	26.6 nM
Cc1nc2ccc(F)c(C#N)c2c(=O)n1CCOc1ccc(Cl)cc1-c1ccnc2c(C(=O)O)csc12 [compound 245]		< 50 nM	25.6 nM
Cc1nc2cnc(N(C)C3CCN(CC(F)F)CC3)c(C#N)c2c(=O)n1C(C)C#Cc1ccc(Cl)cc1-c1ccnc2c(C(=O)O)csc12 (stereo not drawn) [compound 1557]	6.77 nM		
Cc1nc2cnc(N(C)C3CCN(C4CC(F)(F)C4)CC3)c(C#N)c2c(=O)n1CC#Cc1ccc(Cl)cc1-c1ccnc2c(C(=O)NS(C)(=O)=O)csc12 [compound 1108]		< 50 nM	29.1 nM
Cc1nc2ccc(C#N)c(C#N)c2c(=O)n1CCOc1ccc(Cl)cc1-c1ccnc2c(C(=O)O)csc12 [compound 228]		< 50 nM	23.5 nM
Cc1c(CN(C)C)c(C(F)(F)F)cc2nc(C)n(CCOc3ccc(Cl)cc3-c3ccnc4c(C(=O)O)csc34)c(=O)c12 [compound 620]		< 50 nM	36.9 nM
Cc1cc(-c2c(F)cc3nc(C)n(CCOc4ccc(Cl)cc4-c4cc(C)nc5c(C(=O)O)csc45)c(=O)c3c2C#N)cc(C)n1 [compound 932]		< 50 nM	17.8 nM
Cc1nc2cnc(N(C)C3CCN(CC(F)F)CC3)c(C#N)c2c(=O)n1CCOc1ccc(Cl)cc1-c1ccnc2c(P(=O)(O)O)csc12 [compound 1617]	15.6 nM		
Cc1cc(-c2cc(Cl)ccc2OCCn2c(C)nc3cc(CNC(C)(C)C)c(OC(F)F)c(C#N)c3c2=O)c2scc(C(=O)O)c2n1 [compound 619]		< 50 nM	6.34 nM
COc1ccc(-c2c(Cl)cc3nc(C)n(CCOc4ccc(Cl)cc4-c4cc(C)nc5c(C(=O)O)csc45)c(=O)c3c2C#N)cn1 [compound 1061]		< 50 nM	8.54 nM
Cc1nc2c(F)c(CN(C)C)c(C(F)F)c(C#N)c2c(=O)n1CCOc1ccc(Cl)cc1-c1ccnc2c(C(=O)O)csc12 [compound 518]		< 50 nM	16.4 nM
N#Cc1cc2c(=O)n(CCOc3ccc(Cl)cc3-c3cc(C(=O)O)c4cc[nH]c4n3)cnc2cn1 [compound 117]		> 1000 nM	> 3000 nM
COC1CCN(c2ncc3nc(C)n(CCOc4ccc(Cl)cc4-c4cc(C)nc5c(C(=O)O)csc45)c(=O)c3c2C#N)C1 (stereo not drawn) [compound 1234]	30.2 nM	< 50 nM	
Cc1c(C(F)(F)F)cc2nc(C)n(CCOc3ccc(Cl)cc3-c3cn(C)c(=O)c4c(C(=O)O)csc34)c(=O)c2c1C#N [compound 753]		< 50 nM	13.8 nM
Cc1nc2cc(Cl)c(C#N)c(C#N)c2c(=O)n1CCOc1ccc(Cl)cc1-c1ccnc2c(C(=O)O)csc12 [compound 1949]	21.6 nM		
Cc1nc2cnc(N3CCN(C(C)(C)CC(F)(F)F)CC3)c(C#N)c2c(=O)n1CCOc1ccc(Cl)cc1-c1ccnc2c(C(=O)O)csc12 [compound 845]		< 50 nM	12.7 nM
Cc1cc(-c2cc(Cl)ccc2OCCn2c(C)nc3cc(C(F)(F)F)c(-c4nccnc4C)nc3c2=O)c2scc(C(=O)O)c2n1 [compound 1019]		< 50 nM	30.8 nM
Cc1nc2cnccc2c(=O)n1CCOc1ccc(Cl)cc1-c1cccc(P(=O)(O)O)c1 [150FC]			124 nM
Cc1cc(-c2cc(Cl)ccc2OCCn2c(C)nc3cnc(C4CCC(F)(F)C4)c(C#N)c3c2=O)c2scc(C(=O)O)c2n1 (stereo not drawn) [compound 930]		< 50 nM	6.88 nM
CCc1nc(C)c2nc(C)n(CCOc3ccc(Cl)cc3-c3cc(C)nc4c(C(=O)O)csc34)c(=O)c2c1C#N [compound 850]		< 50 nM	17.7 nM
